What was measured:
tubulin = experiment: Tubulin (microtubule) polymerization-depolymerization measurement, turbidity at 340 nm; format: biochemical; details: for calcium chloride promoted depolymerization is suppressed: tubulin 1.0 mg/mL, 1.0 mM GTP, compound 10^-6 M, CaCl2 0.25 mM added after 20 minutes, 37°C
Procedure: Tubulin polymerization-depolymerization measurements are illustrate in Figure 3. Negative controls are shown with triangles; positive taxol controls are shown with diamonds; and taxol-2'-MPT, i.e., compound 2 is shown with dots.
More particularly, measurement were performed in 96 well plates at 37°C following the protocol of R. Merlock and W. Wrasidlo (Analytical Biochemistry 1993, in press). Calcium chloride addition is indicated by the arrow. In each case, 1.0 mM GTP was used to promote the initial polymerization of tubulin. Negative control employed tubulin (1.0 mg/mL) alone, CaCl2 (0,25 mM) added after 20 minutes. Positive taxol control employed tubulin (1.0 mg/mL) with taxol (10^-6M) and CaCl2 (0.25mM) added after 20 minutes. The experimental taxol-2'-MPT employed tubulin (1.0 mg/mL) with taxol-2'-MPT (10^-6) and CaCl2 (0.25 mM) added after 20 minutes. Turbidity was measured as optical density at 340 nm using a microplate reader (Molecular Devices Thermomax).

albumin = albumin (Homo sapiens, UniProt P02768); details: serum; cited from earlier work
Sequence of albumin (P02768 25-609): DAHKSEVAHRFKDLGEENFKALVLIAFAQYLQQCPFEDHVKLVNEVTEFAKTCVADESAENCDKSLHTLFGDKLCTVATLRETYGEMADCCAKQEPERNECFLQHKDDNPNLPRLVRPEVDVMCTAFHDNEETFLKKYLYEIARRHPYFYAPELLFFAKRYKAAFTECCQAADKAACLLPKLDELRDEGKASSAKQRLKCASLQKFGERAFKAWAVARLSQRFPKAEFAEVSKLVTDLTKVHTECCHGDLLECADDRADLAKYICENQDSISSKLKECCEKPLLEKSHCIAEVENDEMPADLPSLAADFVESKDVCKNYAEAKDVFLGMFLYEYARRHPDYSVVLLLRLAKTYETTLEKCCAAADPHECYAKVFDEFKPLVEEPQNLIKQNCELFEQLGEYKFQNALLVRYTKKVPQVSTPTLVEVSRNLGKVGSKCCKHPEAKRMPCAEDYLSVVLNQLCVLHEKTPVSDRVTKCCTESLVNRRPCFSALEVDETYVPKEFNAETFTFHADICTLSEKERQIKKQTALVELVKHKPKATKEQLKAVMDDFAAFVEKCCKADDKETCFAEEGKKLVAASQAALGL

physchem = details: water
Procedure: The solubility and partition coefficient data for 2 and taxol were determined using an HPLC method.
Solubility was found by forming a solution in water with the aid of sonication for five minutes, centrifugation of the samples, and injection of the supernatant. The values reported were normalized using calibration curves constructed for both compounds by preparing known concentrations in the range 1 x 10^-6 to 1 x 10^-3 M in methylene chloride and subjecting to HPLC analysis under the same conditions. […] Partition coefficients were determined by dissolving the compound in the organic phase, shaking the resulting solution with water for ten minutes, and analyzing each phase by HPLC as above.

[1] = Taxol release from the prodrug in plasma, methylene chloride extraction and HPLC; format: in vitro ADME, human
Procedure: (§1) Due to a difference in retention time using our standard HPLC conditions (see Fig. 1) and differing ultraviolet absorption maxima (1280/1254 = 1.6 for 2 and 0.3 for 1), the stability of 2 was easily assayed by HPLC (Fig. 1). […] In phosphate buffered saline (PBS) or ammonium acetate - phosphate buffer systems of pH 6.0 to 7.3, 2 is stable at 25 °C for over 21 days. Taxol-2'-MPT (2) is, however, unstable in 5% HCl (pH 1.1) and brine.
(§2) Under these conditions 20% of total is recovered. More particularly, Taxol-2'-MPT (2) was dissolved in the aqueous system with the aid of sonication for five minutes. Aliquots were then removed at the times shown and partitioned into methylene chloride to quench the reaction. Samples were then analyzed using a Waters Maxima HPLC instrument equipped with an autoinjector (3.9x300 mm C18 column equipped with a precolumn. The flow rate was 1.5 mL/minute. The eluent gradient A-B extended over 30 minutes. "A" was 80% 80mM ammonium acetate, pH 6.0. "B" was 100% methanol. An ultraviolet diode array detector was employed. The ratio of compound 2 (Rf 16.2 min.) to taxol (compound 1, Rf 16.8 min.) remaining was determined from the relative areas of the peaks after normalization with previously determined calibration curves.

[2] = Metabolic study using the tritiated compound; format: in vivo; details: tritiated 2
[3] = Critical aggregation concentration by UV absorption (optical density) at 340 nm; format: physicochemical; details: buffered solutions, absorption at 340 nm
[4] = Stability and taxol release in the solid state and aqueous media, assayed by HPLC; format: physicochemical
Procedure: as §1, §2

[5] = in water, 5% dextrose, and 1.5% saline

CC(=O)O[C@H]1C(=O)[C@@]2(C)[C@H]([C@H](OC(=O)c3ccccc3)[C@]3(O)C[C@H](OC(=O)[C@H](O)[C@@H](NC(=O)c4ccccc4)c4ccccc4)C(C)=C1C3(C)C)[C@]1(OC(C)=O)CO[C@@H]1C[C@@H]2O [taxol, Taxol]
microtubule stabilization (tubulin; taxol recovered from human plasma treated with 2): exhibited the expected microtubule stabilization | calcium chloride promoted depolymerization is suppressed (tubulin): suppressed | bind to albumin in sera (albumin): ca. 85% | solubility (physchem): < 1.5 µM | Partition Coefficient [octanol]/[water]: > 10000

CC(=O)O[C@H]1C(=O)[C@@]2(C)[C@H]([C@H](OC(=O)c3ccccc3)[C@]3(O)C[C@H](OC(=O)[C@H](Oc4cccc[n+]4C)[C@@H](NC(=O)c4ccccc4)c4ccccc4)C(C)=C1C3(C)C)[C@]1(OC(C)=O)CO[C@@H]1C[C@@H]2O [compound 2, Taxol-2'-MPT]
stability when incubated with human plasma ([1]; 37°C, human plasma): breaks down rapidly | complete conversion of 2 into taxol (1) ([1]; plasma treated with compound 2, methylene chloride extraction): ≤ 10 min | effect on tubulin-microtubule equilibria (tubulin; buffered aqueous environment of the assay, 2 not converted to taxol): does not affect the tubulin-microtubule equilibria | calcium chloride promoted depolymerization is suppressed (tubulin): not | excreted through the kidneys [2]: 5% | critical concentration (exponential increase in optical density) [3]: 400 µM | stability ([4]; 5% HCl (pH 1.1) and brine): unstable | stability in the solid state ([4]; -80 °C to 25 °C, regardless of inert atmosphere): completely stable | stable for ([4]; PBS or ammonium acetate - phosphate buffer systems of pH 6.0 to 7.3, 25 °C): over 21 days | begins to exhibit slow degradation after [4, 5]: 4 days | stability [4, 5]: stable for several days | taxol release ([4]; sterile water, pH 6.2 phosphate buffered saline, or 5% dextrose, 25°C, period of 11 minutes): no taxol release is observed
